The NIST ThermoML archive (doi:10.1016/j.jct.2016.02.007)
± gives the expanded uncertainty stated by the source.

Key:
[1] = wn = mass fraction of the nth substance listed; conditions: 101.3 kPa, Liquid, Vibrating tube method, w2 = 0
[2] = 101.3 kPa, Liquid, Vibrating tube method

O [water] + CN(C)CCCO
mass density ([1]; 313.15 K): 992.3 ± 4.8 kg/m3 | mass density ([1]; 318.15 K): 990.3 ± 4.8 kg/m3 | mass density ([1]; 323.15 K): 988 ± 4.8 kg/m3 | mass density ([1]; 328.15 K): 985.6 ± 4.8 kg/m3 | mass density ([1]; 333.15 K): 983.3 ± 4.8 kg/m3 | mass density ([1]; 338.15 K): 980.7 ± 4.8 kg/m3 | mass density ([1]; 343.15 K): 977.9 ± 4.8 kg/m3

CN(C)CCCO [3-dimethylamino-1-propanol]
mass density ([2]; 293.15 K): 886.7 ± 4.8 kg/m3 | mass density ([2]; 298.15 K): 883 ± 4.8 kg/m3 | mass density ([2]; 303.15 K): 879.1 ± 4.8 kg/m3 | mass density ([2]; 308.15 K): 875.1 ± 4.8 kg/m3 | mass density ([2]; 313.15 K): 871.2 ± 4.8 kg/m3 | mass density ([2]; 318.15 K): 867.2 ± 4.8 kg/m3 | mass density ([2]; 323.15 K): 863.1 ± 4.8 kg/m3 | mass density ([2]; 328.15 K): 859.1 ± 4.8 kg/m3 | mass density ([2]; 333.15 K): 855 ± 4.8 kg/m3 | mass density ([2]; 338.15 K): 850.8 ± 4.8 kg/m3 | mass density ([2]; 343.15 K): 846.7 ± 4.8 kg/m3

O [water]
mass density ([2]; 313.15 K): 992.3 ± 1 kg/m3 | mass density ([2]; 318.15 K): 990.3 ± 1 kg/m3 | mass density ([2]; 323.15 K): 988 ± 1 kg/m3 | mass density ([2]; 328.15 K): 985.6 ± 1 kg/m3 | mass density ([2]; 333.15 K): 983.3 ± 1 kg/m3 | mass density ([2]; 338.15 K): 980.7 ± 1 kg/m3 | mass density ([2]; 343.15 K): 977.9 ± 1 kg/m3
